Data taken from the supplement of paper PMC7840683.
Where a name gives a salt, the structure may show the parent alone. ± gives the standard deviation of the averaged measurements.

Test system: HepaRG
Assay: LDH release cytotoxicity, % of total lysis control; higher = more cytotoxic
Settings: 48 h
Procedure, shortened: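 Single-lot HepaRG cells in collagen I-coated 96-well plates were treated for 48 h in serum-free induction medium containing 0.5% DMSO with test chemicals in eight-point half-log series up to 100 µM. For total lysis, wells received 0.1% Triton X. LDH in 50 µL spent medium was assayed by resorufin fluorescence with CytoTox-ONE. Percent cytotoxicity was normalized to the on-plate vehicle and total lysis controls, with duplicates averaged.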

| Compound | LDH release cytotoxicity (0.1 µM) [%] | LDH release cytotoxicity (1 µM) [%] | LDH release cytotoxicity (3.16228 µM) [%] | LDH release cytotoxicity (10 µM) [%] | LDH release cytotoxicity (31.6228 µM) [%] | LDH release cytotoxicity (100 µM) [%] | LDH release cytotoxicity (0.03162 µM) [%] | LDH release cytotoxicity (0.3162278 µM) [%] | further results |
| --- | --- | --- | --- | --- | --- | --- | --- | --- | --- |
| O=C1c2ccccc2C(=O)N1SC(Cl)(Cl)Cl [Folpet] | -2.6 ± 0.32 | -1.65 ± 1.3 | -1.73 ± 0.14 | -1.49 ± 0.98 | -0.653 ± 0.48 | -0.43 ± 1.1 | – | – | LDH release cytotoxicity (0.031623 µM): 0.571 ± 0.94%; LDH release cytotoxicity (0.316228 µM): -1.27 ± 0.63% |
| CS(=O)(=O)NC(=O)c1cc(Oc2ccc(C(F)(F)F)cc2Cl)ccc1[N+](=O)[O-] [Fomesafen] | -1.48 ± 0.59 | -0.63 ± 0.72 | -0.773 ± 0.02 | 0.708 ± 0.54 | 0.985 ± 0.17 | 3.41 ± 0.9 | -1.12 ± 1.1 | 0.3 ± 0.32 | – |
| O=C(Nc1ccccc1)Nc1ccnc(Cl)c1 [Forchlorfenuron] | -0.953 ± 0.64 | -0.995 ± 0.79 | -0.25 ± 0.84 | -0.369 ± 0.16 | 6.54 ± 0.27 | 61.5 ± 5.7 | -0.561 ± 0.058 | -0.719 ± 0.22 | – |
| NC=O [Formamide] | -1.37 ± 0.46 | -1.62 ± 1.2 | -1.72 ± 0.14 | -1.47 ± 1.5 | -0.537 ± 0.33 | 0.4 ± 1.3 | -0.907 ± 0.53 | -0.701 ± 1.2 | – |
| CNC(=O)Oc1cccc(N=CN(C)C)c1 [Formetanate hydrochloride] | – | – | – | – | – | – | – | – | LDH release cytotoxicity (0.0317809 µM): -8.9 ± 1.2%; LDH release cytotoxicity (0.1005 µM): -7.63 ± 0.9%; LDH release cytotoxicity (0.317809 µM): -7.59 ± 0.12%; LDH release cytotoxicity (1.005 µM): -7.51 ± 1%; LDH release cytotoxicity (3.17809 µM): -6.9 ± 0.096%; LDH release cytotoxicity (10.05 µM): -5.88 ± 0.74%; LDH release cytotoxicity (31.7809 µM): -6.15 ± 0.89%; LDH release cytotoxicity (100.5 µM): -5.62 ± 1.4% |
| CCOP(=O)(SC(C)CC)N1CCSC1=O (configuration not stated) [Fosthiazate] | -0.335 ± 0.79 | -0.0276 ± 1 | -0.262 ± 0.11 | -0.389 ± 0.35 | -0.432 ± 0.8 | 0.843 ± 0.36 | -0.419 ± 0.44 | -0.582 ± 0.46 | – |
| CC12CCC3c4ccc(O)cc4CC(CCCCCCCCCS(=O)CCCC(F)(F)C(F)(F)F)C3C1CCC2O (configuration not stated) [Fulvestrant] | -1.62 ± 0.93 | -1.01 ± 0.37 | -1.1 ± 0.47 | -0.0401 ± 1.7 | -3.17 ± 0.35 | 3.92 ± 6.4 | -1.87 ± 0.22 | -0.633 ± 0.4 | – |
| O=Cc1ccco1 [Furfural] | -2.07 ± 1.7 | -3.82 ± 2.1 | -4.51 ± 0.77 | -0.135 ± 1.1 | -0.567 ± 0.12 | 3.05 ± 1.1 | -1.57 ± 0.78 | -2.64 ± 0.63 | – |
| O=c1c(-c2ccc(O)cc2)coc2cc(O)cc(O)c12 [Genistein] | 0.689 ± 1.7 | -1.48 ± 0.77 | -1.52 ± 0.039 | -1.28 ± 0.36 | -1.5 ± 0.3 | 1.33 ± 0.27 | -1.15 ± 0.87 | -2.06 ± 0.49 | – |
| CN(C)c1ccc(C(=C2C=CC(=[N+](C)C)C=C2)c2ccc(N(C)C)cc2)cc1 [Gentian Violet] | -2.46 ± 0.081 | -1.96 ± 0.38 | 6.76 ± 0.71 | 29.8 ± 0.12 | 51.8 ± 0.8 | 54.6 ± 3.8 | -1.62 ± 0.081 | -1.86 ± 0.074 | – |
| CC(C)=CCC/C(C)=C/CO [Geraniol] | -2.89 ± 0.23 | -2.72 ± 0.9 | -2.26 ± 0.81 | -1.87 ± 0.88 | -1.12 ± 0.87 | -0.773 ± 0.42 | -2.2 ± 0.9 | -2.68 ± 0.32 | – |
| CC(=O)OCC=C(C)CCC=C(C)C [Geranyl acetate] | -3.48 ± 2.1 | -4.04 ± 0.45 | -4.04 ± 0.095 | -3.42 ± 0.49 | -1.98 ± 0.24 | -0.423 ± 0.54 | – | – | LDH release cytotoxicity (0.031623 µM): -1.3 ± 1.1%; LDH release cytotoxicity (0.316228 µM): -4.47 ± 1.1% |
| O=CCCCC=O [Glutaraldehyde] | -1.62 ± 0.91 | -1.74 ± 0.39 | -1.11 ± 0.16 | -0.663 ± 0.23 | -1.18 ± 0.084 | 0.174 ± 0.34 | -0.884 ± 0.62 | -1.72 ± 0.78 | – |
| OCC(O)CO [Glycerol] | -1.11 ± 0.27 | -1.79 ± 0.27 | -1.43 ± 0.14 | -1.14 ± 0.37 | -0.926 ± 0.83 | -0.545 ± 0.22 | -1.51 ± 0.67 | -1.56 ± 0.12 | – |
| OCC1CO1 (configuration not stated) [Glycidol] | -1.28 ± 0.094 | -1.25 ± 0.47 | -0.452 ± 0.0064 | -0.678 ± 0.18 | -0.342 ± 0.43 | 1.57 ± 0.042 | -0.883 ± 0.53 | -0.409 ± 0.45 | – |
| C[N+](C)(C)CC1CO1 (configuration not stated) [Glycidyl trimethylammonium chloride] | -0.64 ± 0.72 | -1.32 ± 0.64 | -1.48 ± 0.5 | -0.844 ± 0.16 | -0.342 ± 0.33 | 0.366 ± 0.66 | -0.794 ± 0.83 | -0.926 ± 0.041 | – |
| CCCCCCC(CCCCCCCCCCC(=O)OCC(COC(C)=O)OC(C)=O)OC(C)=O (configuration not stated) [Grinstad Soft-N-Safe] | – | – | – | – | – | – | – | – | LDH release cytotoxicity (0.015811 µM): -1.88 ± 0.51%; LDH release cytotoxicity (0.05 µM): -1.59 ± 1.3%; LDH release cytotoxicity (0.158114 µM): -1.52 ± 1.4%; LDH release cytotoxicity (0.5 µM): -1.93 ± 1.6%; LDH release cytotoxicity (1.58114 µM): -2.07 ± 1.3%; LDH release cytotoxicity (5 µM): -1.64 ± 1.7%; LDH release cytotoxicity (15.8114 µM): -0.943 ± 1.3%; LDH release cytotoxicity (50 µM): 1.04 ± 1.8% |
| CCN(CC)C(=O)c1cc(S(=O)(=O)Cc2ccccc2)c(N2CCC(c3ccccc3)CC2)cc1N(CC)CCN(C)C [HMR1171 trifluoroacetate (1:1)] | – | – | – | – | – | – | – | – | LDH release cytotoxicity (0.01202 µM): 1.63 ± 0.27%; LDH release cytotoxicity (0.038 µM): 0.671 ± 0.26%; LDH release cytotoxicity (0.120167 µM): 0.671 ± 1.3%; LDH release cytotoxicity (0.38 µM): -0.413 ± 1.6%; LDH release cytotoxicity (1.20167 µM): -7.42 ± 1%; LDH release cytotoxicity (3.8 µM): 9.34 ± 2.8%; LDH release cytotoxicity (12.01666 µM): 1.9 ± 0.12%; LDH release cytotoxicity (38 µM): 82.5 ± 8.2% |
| OC12N=C(c3ccccc3)SC1Cc1cc(Cl)ccc12 (configuration not stated) [HMR1426] | -0.325 ± 2 | 1.42 ± 1.4 | 3.44 ± 0.72 | 4.43 ± 0.51 | 3.89 ± 0.3 | 8.06 ± 0.31 | 0.113 ± 0.048 | 2.01 ± 0.36 | – |
